{
  "source": "patent US9447134B2",
  "about": "(priority 2012, dated 2016)",
  "key": {"CpIMPDH [1]": {"molecular_target": "T1, CpIMPDH (Cryptosporidium parvum, UniProt Q8T6T2)", "T1 sequence (Q8T6T2 1-400)": "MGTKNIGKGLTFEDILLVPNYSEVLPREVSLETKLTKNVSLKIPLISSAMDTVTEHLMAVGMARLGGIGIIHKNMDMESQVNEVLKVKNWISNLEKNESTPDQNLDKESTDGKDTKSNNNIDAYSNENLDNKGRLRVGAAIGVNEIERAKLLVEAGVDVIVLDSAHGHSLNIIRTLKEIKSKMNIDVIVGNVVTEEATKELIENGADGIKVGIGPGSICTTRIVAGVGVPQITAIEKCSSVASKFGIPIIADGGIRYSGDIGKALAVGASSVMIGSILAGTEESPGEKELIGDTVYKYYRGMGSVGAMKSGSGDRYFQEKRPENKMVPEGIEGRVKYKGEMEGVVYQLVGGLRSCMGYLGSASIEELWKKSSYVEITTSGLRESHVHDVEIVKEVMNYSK"}, "[2]": {"experiment": "Mouse liver microsomal stability"}, "F. tularensis IMPDH": {"molecular_target": "F. tularensis IMPDH (Francisella tularensis, UniProt Q5NFC2)", "sequence (Q5NFC2 1-486)": "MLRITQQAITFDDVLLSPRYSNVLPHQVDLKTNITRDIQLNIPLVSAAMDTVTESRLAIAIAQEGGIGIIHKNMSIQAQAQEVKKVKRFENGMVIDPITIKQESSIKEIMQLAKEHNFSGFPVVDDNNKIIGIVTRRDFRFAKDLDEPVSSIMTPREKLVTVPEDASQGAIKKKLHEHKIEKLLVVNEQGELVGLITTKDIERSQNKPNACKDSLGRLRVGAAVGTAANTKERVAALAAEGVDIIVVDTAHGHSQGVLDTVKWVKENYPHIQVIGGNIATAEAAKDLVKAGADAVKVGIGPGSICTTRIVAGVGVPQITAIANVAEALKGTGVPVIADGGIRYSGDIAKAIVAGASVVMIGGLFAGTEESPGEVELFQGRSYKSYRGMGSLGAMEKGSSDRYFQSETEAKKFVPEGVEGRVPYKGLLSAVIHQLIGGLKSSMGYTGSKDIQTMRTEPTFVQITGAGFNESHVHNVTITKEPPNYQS", "experiment": "biochemical"}, "B. anthracis IMPDH": {"molecular_target": "B. anthracis IMPDH (Bacillus anthracis, UniProt A0A6L8P2U9)", "sequence (A0A6L8P2U9 1-487)": "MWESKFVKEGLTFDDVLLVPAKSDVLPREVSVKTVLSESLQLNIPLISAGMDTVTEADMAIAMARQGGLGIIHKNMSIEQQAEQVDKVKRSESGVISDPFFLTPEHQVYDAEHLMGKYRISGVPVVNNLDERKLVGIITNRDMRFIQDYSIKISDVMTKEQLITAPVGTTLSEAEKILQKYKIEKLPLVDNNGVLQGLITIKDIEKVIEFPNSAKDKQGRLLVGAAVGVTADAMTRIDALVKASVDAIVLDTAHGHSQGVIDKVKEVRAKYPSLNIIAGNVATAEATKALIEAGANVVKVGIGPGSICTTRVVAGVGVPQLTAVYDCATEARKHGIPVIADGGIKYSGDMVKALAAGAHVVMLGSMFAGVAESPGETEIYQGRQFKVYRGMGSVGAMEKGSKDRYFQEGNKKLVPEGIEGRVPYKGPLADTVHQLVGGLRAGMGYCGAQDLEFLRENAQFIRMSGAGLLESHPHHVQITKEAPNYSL", "experiment": "biochemical"}, "CpIMPDH [3]": {"molecular_target": "T1, CpIMPDH", "experiment": "biochemical"}, "CpIMPDH [4]": {"molecular_target": "T1, CpIMPDH", "remark": "listed apart in the source"}, "Caco-2 cells": {"tested_on": "Caco-2 cells", "conditions": "cited from earlier work"}, "[5]": {"conditions": "mouse, in vivo; cited from earlier work"}, "Cryptosporidium": {"tested_on": "Cryptosporidium", "conditions": "mouse models; cited from earlier work"}},
  "data": [
    {"compound": "Cn1nc(CC(=O)Nc2ccc(Cl)c(C(F)(F)F)c2)c2ccccc2c1=O", "values": [
      {"measurement": "inhibition mechanism with respect to NAD+", "setting": "CpIMPDH [1]", "value": "pure noncompetitive inhibitor"},
      {"measurement": "Ki", "setting": "CpIMPDH [1]; read-out: Kis, with respect to NAD+", "value": "3.4 ± 0.2", "unit": "nM"},
      {"measurement": "half-life in mouse liver microsomes", "setting": "[2]; presence or absence of NADPH not given", "value": 79, "unit": "min"}
    ]},
    {"compound": "C=C(C)c1cccc(C(C)(C)NC(=O)Nc2ccccc2)c1", "note": "[Compound 5a, 1-Phenyl-3-(2-(3-(prop-1-en-2-yl)phenyl)propan-2-yl)urea]", "values": [
      {"measurement": "melting point", "value": "188 to 190", "unit": "°C"}
    ]},
    {"compound": "C=C(C)c1cccc(C(C)(C)NC(=O)Nc2ccc(Cl)c(Cl)c2)c1", "note": "[Compound 5h, 1-(3,4-Dichlorophenyl)-3-(2-(3-(prop-1-en-2-yl)phenyl)propan-2-yl)urea]", "values": [
      {"measurement": "melting point", "value": "198 to 200", "unit": "°C"}
    ]},
    {"compound": "C=C(C)c1cccc(C(C)(C)NC(=O)Nc2ccc3ccccc3c2)c1", "note": "[Compound 5o, 1-(Naphthalen-2-yl)-3-(2-(3-(prop-1-en-2-yl)phenyl)propan-2-yl)urea]", "values": [
      {"measurement": "melting point", "value": "201 to 203", "unit": "°C"}
    ]},
    {"compound": "C=C(C)c1cccc(C(C)(C)NC(=O)Nc2ccc3ccccc3n2)c1", "note": "[Compound 5t, 1-(2-(3-(prop-1-en-2-yl)phenyl)propan-2-yl)-3-(quinolin-2-yl)urea]", "values": [
      {"measurement": "melting point", "value": "126 to 128", "unit": "°C"}
    ]},
    {"compound": "C/C(=N\\O)c1cccc(C(C)(C)NC(=O)Nc2ccc(Cl)c(C(F)(F)F)c2)c1", "note": "[Compound 7a, (E)-1-(4-Chloro-3-(trifluoromethyl)phenyl)-3-(2-(3-(1-(hydroxyimino)ethyl)phenyl)propan-2-yl)urea]", "values": [
      {"measurement": "melting point", "value": "194 to 196", "unit": "°C"}
    ]},
    {"compound": "C/C(=N\\O)c1cccc(C(C)(C)NC(=O)Nc2ccc3cccnc3c2)c1", "note": "[Compound 7e, (E)-1-(2-(3-(1-(Hydroxyimino)ethyl)phenyl)propan-2-yl)-3-(quinolin-7-yl)urea]", "values": [
      {"measurement": "melting point", "value": "164 to 166", "unit": "°C"}
    ]},
    {"compound": "CC1(c2cccc(CNC(=O)Nc3ccc(Cl)cc3)c2)OCCO1", "note": "[Compound 22, 1-(4-Chlorophenyl)-3-(3-(2-methyl-1,3-dioxolan-2-yl)benzyl)urea]", "values": [
      {"measurement": "half-life in mouse liver microsomes", "setting": "[2]; 37° C., absence of NADPH", "value": "quite stable"},
      {"measurement": "half-life in mouse liver microsomes", "setting": "[2]; 37° C., presence of NADPH", "value": 25, "unit": "min"}
    ]},
    {"compound": "Cn1nc(CC(=O)Nc2ccc(Br)c(C(F)(F)F)c2)c2ccccc2c1=O", "note": "[Compound D45]", "values": [
      {"measurement": "IC50", "setting": "F. tularensis IMPDH", "value": 270, "unit": "nM"}
    ]},
    {"compound": "Cn1nc(CC(=O)Nc2ccc(Cl)c(F)c2)c2ccccc2c1=O", "note": "[Compound D52]", "values": [
      {"measurement": "IC50", "setting": "B. anthracis IMPDH", "value": 900, "unit": "nM"}
    ]},
    {"compound": "Cc1cc2cc(NC(=O)Cc3nn(C)c(=O)c4ccccc34)ccc2o1", "note": "[Compound D62, N-(2-methylbenzofuran-5-yl)-2-(3-methyl-4-oxo-3,4-dihydrophthalazin-1-yl)-acetamide]", "values": [
      {"measurement": "IC50", "setting": "CpIMPDH [3]", "value": 70, "unit": "nM"}
    ]},
    {"compound": "Cn1nc(CC(=O)Nc2ccc3ocnc3c2)c2ccccc2c1=O", "note": "[Compound D64, N-(benzo[d]oxazol-5-yl)-2-(3-methyl-4-oxo-3,4-dihydrophthalazin-1-yl)acetamide]", "values": [
      {"measurement": "CpIMPDH inhibitory activity (SAR, in words)", "setting": "CpIMPDH [4]", "value": "inactive"}
    ]},
    {"compound": "Cn1nc(CC(=O)Nc2ccc3[nH]c4ccccc4c3c2)c2ccccc2c1=O", "note": "[Compound D70, N-(9H-carbazol-3-yl)-2-(3-methyl-4-oxo-3,4-dihydrophthalazin-1-yl)acetam-de]", "values": [
      {"measurement": "CpIMPDH inhibitory activity (SAR, in words)", "setting": "CpIMPDH [4]", "value": "not active"}
    ]},
    {"compound": "CCn1c2ccccc2c2cc(NC(=O)Cc3nn(C)c(=O)c4ccccc34)ccc21", "note": "[Compound D71, N-(9-ethyl-9H-carbazol-3-yl)-2-(3-methyl-oxo-3,4-dihydrophthalazin-1-yl) acetamide]", "values": [
      {"measurement": "CpIMPDH inhibitory activity (SAR, in words)", "setting": "CpIMPDH [4]", "value": "not active"}
    ]},
    {"compound": "Cn1nc(CC(=O)Nc2ccc3c(c2)oc2ccccc23)c2ccccc2c1=O", "note": "[Compound D72, N-(dibenzo[b,d]furan-3-yl)-2-(3-methyl-4-oxo-3,4-dihydrophthalazin-1-yl)acetamide]", "values": [
      {"measurement": "CpIMPDH inhibitory activity (SAR, in words)", "setting": "CpIMPDH [4]", "value": "not active"}
    ]},
    {"compound": "CC(=O)c1cccc(C(C)(C)OC(=O)Nc2ccc(Cl)cc2)c1", "note": "[Compound P112]", "values": [
      {"measurement": "IC50", "setting": "B. anthracis IMPDH", "value": 520, "unit": "nM"},
      {"measurement": "IC50", "setting": "F. tularensis IMPDH", "value": 390, "unit": "nM"}
    ]},
    {"compound": "C=C(C)c1cccc(C(C)(C)NC(=O)Nc2ccc3c(c2)OCCO3)c1", "note": "[Compound P113]", "values": [
      {"measurement": "IC50", "setting": "B. anthracis IMPDH", "value": 110, "unit": "nM"},
      {"measurement": "IC50", "setting": "F. tularensis IMPDH", "value": 41, "unit": "nM"}
    ]},
    {"compound": "CC(=NOC(C)(C)C)c1cccc(C(C)(C)NC(=O)Nc2ccc(Cl)c(C(F)(F)F)c2)c1", "note": "[Compound P114]", "values": [
      {"measurement": "IC50", "setting": "B. anthracis IMPDH", "value": 56, "unit": "nM"},
      {"measurement": "IC50", "setting": "F. tularensis IMPDH", "value": 6900, "unit": "nM"}
    ]},
    {"compound": "C/C(=N\\OC(C)(C)C)c1cccc(C(C)(C)NC(=O)Nc2ccc(Cl)c([N+](=O)[O-])c2)c1", "note": "[Compound P127]", "values": [
      {"measurement": "IC50", "setting": "B. anthracis IMPDH", "value": 94, "unit": "nM"},
      {"measurement": "IC50", "setting": "F. tularensis IMPDH", "value": 1800, "unit": "nM"}
    ]},
    {"compound": "C=C(C)c1cccc(C(C)(C)NC(=O)Nc2ccc(Cl)c(C(=O)O)c2)c1", "note": "[Compound P138]", "values": [
      {"measurement": "IC50", "setting": "B. anthracis IMPDH", "value": 67, "unit": "nM"},
      {"measurement": "IC50", "setting": "F. tularensis IMPDH", "value": 120, "unit": "nM"}
    ]},
    {"compound": "CC(NC(=O)c1ccc2oc(-c3ccncc3)nc2c1)c1ccccc1", "note": "(stereo not drawn) [Compound Q63]", "values": [
      {"measurement": "IC50", "setting": "B. anthracis IMPDH", "value": 200000, "unit": "nM"},
      {"measurement": "IC50", "setting": "F. tularensis IMPDH", "value": 200000, "unit": "nM"}
    ]},
    {"compound": "C[C@H](Oc1cccc(Cl)c1Cl)C(=O)Nc1ccc2nc(-c3cncs3)oc2c1", "note": "[Compound Q64, (S)-2-(2,3-dichlorophenoxy)-N-(2-(thiazol-5-yl)benzo[d]oxazol-6-yl) propanamide]", "values": [
      {"measurement": "IC50", "setting": "B. anthracis IMPDH", "value": 203, "unit": "nM"},
      {"measurement": "IC50", "setting": "F. tularensis IMPDH", "value": 93.7, "unit": "nM"}
    ]},
    {"compound": "C[C@H](Nc1cccc(Cl)c1Cl)C(=O)Nc1ccc2oc(-c3ccncc3)nc2c1", "note": "[Compound Q67, (S)-2-(2,3-dichlorophenylamino)-N-(2-(pyridine-4-yl)benzo[d]oxazol-5-yl)propanamide]", "values": [
      {"measurement": "IC50", "setting": "B. anthracis IMPDH", "value": 26.8, "unit": "nM"},
      {"measurement": "IC50", "setting": "F. tularensis IMPDH", "value": 27.1, "unit": "nM"}
    ]},
    {"compound": "C[C@H](Sc1cccc(Cl)c1Cl)C(=O)Nc1ccc2oc(-c3ccncc3)nc2c1", "note": "[Compound Q75]", "values": [
      {"measurement": "IC50", "setting": "B. anthracis IMPDH", "value": 151, "unit": "nM"},
      {"measurement": "IC50", "setting": "F. tularensis IMPDH", "value": 192, "unit": "nM"}
    ]},
    {"compound": "NC[C@@H]1O[C@H](O[C@H]2[C@@H](O)[C@H](O[C@@H]3[C@@H](O)[C@H](N)C[C@H](N)[C@H]3O[C@H]3O[C@H](CO)[C@@H](O)[C@H](O)[C@H]3N)O[C@@H]2CO)[C@H](N)[C@@H](O)[C@@H]1O", "note": "[Paromomycin, paromomycin]", "values": [
      {"measurement": "accumulation in Caco-2 cells (in words)", "setting": "Caco-2 cells", "value": "high accumulation"},
      {"measurement": "systemic distribution / oral bioavailability (literature, in words)", "setting": "[5]", "value": "poor oral bioavailability"},
      {"measurement": "range of reduction of fecal oocysts over experiments", "setting": "C. parvum; paromomycin 2000 mg/kg daily oral gavage", "value": "73-99%"},
      {"measurement": "average reduction of fecal oocysts", "setting": "C. parvum; paromomycin 2000 mg/kg daily oral gavage, average of experiments", "value": 89, "unit": "%"},
      {"measurement": "reduction of fecal oocysts, multiple daily dose regime", "setting": "C. parvum; three daily doses (P131 3×83 mg/kg), 10,000 oocysts, counted day 4 post-infection", "value": "88-95%"}
    ]},
    {"compound": "O=c1[nH]c(=O)n([C@H]2C[C@H](O)[C@@H](CO)O2)cc1C(F)(F)F", "note": "[Trifluoromethylthymidine]", "values": [
      {"measurement": "in vivo anticryptosporidial efficacy (literature, in words)", "setting": "Cryptosporidium", "value": "significant anticryptosporidial activity"}
    ]},
    {"compound": "CC(=O)Oc1ccccc1C(=O)Nc1ncc([N+](=O)[O-])s1", "note": "[nitazoxanide]", "values": [
      {"measurement": "in vivo anticryptosporidial efficacy (literature, in words)", "setting": "Cryptosporidium", "value": "little to no efficacy"},
      {"measurement": "systemic distribution / oral bioavailability (literature, in words)", "setting": "[5]", "value": "systemically distributed"}
    ]},
    {"compound": "N-(6,7,8,9-tetrahydrodibenzo[b,d]furan-5-yl)-2-(3-methyl-4-oxo-3,4-dihydro-phthalazin-1-yl)acetamide [Compound D67]", "values": [
      {"measurement": "CpIMPDH inhibitory activity (SAR, in words)", "setting": "CpIMPDH [4]", "value": "enhanced potency"}
    ]}
  ]
}
